# Source: patent publication US8802866B2, “Pyridinylimidazolone derivatives for the inhibition of PI3 kinases” (Merck Patent GmbH, priority 2009, dated 2014)
# pIC50, pKd: −log10 of the molar value.
# Legend:
# PI3Kalpha = PI3Kalpha (Homo sapiens, UniProt P42336); assay: Biochemical PI3Kalpha assay (neomycin SPA, lipid phosphorylation); conditions: human recombinant GST-PI3K
# Procedure, shortened: (§1)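 Recombinant PI3K incubated with lipid substrate and radioactive ATP for 120 min at room temperature with gentle stirring, then stopped with neomycin-coated PVT-SPA beads, ATP 60 mM and EDTA 6.2 mM in PBS. After 60 min bead binding and centrifugation, radioactive Ptdlns(3)P counted by scintillation.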
# [1] = test system: PI3K-dependent phosphorylation of PKB at Serin 473 in PC3 cells; assay: Cellular PI3K assay (P-S473-PKB Luminex assay in PC3 cells); type: cell-based; conditions: Homo sapiens, PC-3, 0.5 h; PC3 cells, 30 min, serum-free, P-S473-PKB; read-out: IC50 (cell)
# Procedure, shortened: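 PC3 cells were exposed for 30 min under serum-free conditions to 7 concentrations of compound, then lysed. Lysates were captured overnight at 4°C on anti-total-PKB Luminex beads and detected with P-S473-PKB antibody plus PE-labelled secondary.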
# PI3Kbeta = PI3Kbeta (Homo sapiens, UniProt P42338); assay: Biochemical PI3Kbeta assay (neomycin SPA, lipid phosphorylation); conditions: human recombinant GST-PI3K
# Procedure, shortened: as §1
# mTOR = target: T1, mTOR (Homo sapiens, UniProt P42345); assay: Biochemical mTOR assay (Millipore mTOR assay kit)
# T1 construct: purchased Millipore 14-770
# Method: The biochemical mTOR assay was carried out by the method described in the Millipore mTOR assay kit (catalogue number 14-770).
# DNA-PK protein complex = DNA-PK protein complex (Homo sapiens, UniProt P78527); assay: Biochemical DNA-PK assay (FlashPlate)
# Procedure, shortened: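 Streptavidin-coated FlashPlate radiometric kinase assay, stopped with 200 mM EDTA, then wells washed with 0.9% NaCl and bound radioactivity counted. Blank (non-specific reaction) defined with a proprietary kinase inhibitor at 10 μM.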
# [2] = target: recombinant PI3Kalpha (shortened form of the catalytic subunit) (Homo sapiens, UniProt P42336); assay: BIACORE PI3K binding assay (SPR); conditions: 25° C.
# Procedure, shortened: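 Contact time was 180 s and dissociation 240 s, in HEPES pH 7.40 buffer with 2% DMSO. Solvent-corrected, double-referenced data were fitted to a 1:1 model with mass transport.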
# PI3Kbeta, sequence (P42338 whole entry): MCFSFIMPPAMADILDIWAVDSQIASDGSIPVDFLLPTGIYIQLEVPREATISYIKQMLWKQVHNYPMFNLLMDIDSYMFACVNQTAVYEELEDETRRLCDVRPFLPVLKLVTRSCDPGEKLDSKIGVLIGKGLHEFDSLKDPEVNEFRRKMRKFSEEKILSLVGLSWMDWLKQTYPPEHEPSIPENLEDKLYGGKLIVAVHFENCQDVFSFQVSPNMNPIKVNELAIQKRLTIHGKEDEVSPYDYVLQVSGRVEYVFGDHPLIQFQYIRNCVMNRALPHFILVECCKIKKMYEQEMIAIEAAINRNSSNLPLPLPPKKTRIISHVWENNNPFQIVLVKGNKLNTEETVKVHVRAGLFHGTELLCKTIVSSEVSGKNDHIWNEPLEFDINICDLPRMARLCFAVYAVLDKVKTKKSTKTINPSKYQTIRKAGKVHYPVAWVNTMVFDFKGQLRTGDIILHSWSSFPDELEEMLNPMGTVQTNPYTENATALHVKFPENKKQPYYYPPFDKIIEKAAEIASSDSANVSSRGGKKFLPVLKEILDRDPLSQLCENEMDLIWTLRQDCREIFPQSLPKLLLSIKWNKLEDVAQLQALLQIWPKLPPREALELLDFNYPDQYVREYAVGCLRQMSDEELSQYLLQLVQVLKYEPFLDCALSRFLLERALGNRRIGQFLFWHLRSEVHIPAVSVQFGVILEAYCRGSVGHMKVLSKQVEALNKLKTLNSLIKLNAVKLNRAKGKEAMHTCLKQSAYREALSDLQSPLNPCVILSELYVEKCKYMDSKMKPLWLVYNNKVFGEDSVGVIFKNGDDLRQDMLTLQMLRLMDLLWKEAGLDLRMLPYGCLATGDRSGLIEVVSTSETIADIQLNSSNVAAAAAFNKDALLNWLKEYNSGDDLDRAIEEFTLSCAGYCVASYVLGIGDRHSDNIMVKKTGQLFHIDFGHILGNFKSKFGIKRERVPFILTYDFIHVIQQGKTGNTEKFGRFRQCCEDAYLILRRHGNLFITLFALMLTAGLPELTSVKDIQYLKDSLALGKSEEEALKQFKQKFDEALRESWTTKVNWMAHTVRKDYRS
# PI3Kbeta, sequence (P27986 whole entry partner): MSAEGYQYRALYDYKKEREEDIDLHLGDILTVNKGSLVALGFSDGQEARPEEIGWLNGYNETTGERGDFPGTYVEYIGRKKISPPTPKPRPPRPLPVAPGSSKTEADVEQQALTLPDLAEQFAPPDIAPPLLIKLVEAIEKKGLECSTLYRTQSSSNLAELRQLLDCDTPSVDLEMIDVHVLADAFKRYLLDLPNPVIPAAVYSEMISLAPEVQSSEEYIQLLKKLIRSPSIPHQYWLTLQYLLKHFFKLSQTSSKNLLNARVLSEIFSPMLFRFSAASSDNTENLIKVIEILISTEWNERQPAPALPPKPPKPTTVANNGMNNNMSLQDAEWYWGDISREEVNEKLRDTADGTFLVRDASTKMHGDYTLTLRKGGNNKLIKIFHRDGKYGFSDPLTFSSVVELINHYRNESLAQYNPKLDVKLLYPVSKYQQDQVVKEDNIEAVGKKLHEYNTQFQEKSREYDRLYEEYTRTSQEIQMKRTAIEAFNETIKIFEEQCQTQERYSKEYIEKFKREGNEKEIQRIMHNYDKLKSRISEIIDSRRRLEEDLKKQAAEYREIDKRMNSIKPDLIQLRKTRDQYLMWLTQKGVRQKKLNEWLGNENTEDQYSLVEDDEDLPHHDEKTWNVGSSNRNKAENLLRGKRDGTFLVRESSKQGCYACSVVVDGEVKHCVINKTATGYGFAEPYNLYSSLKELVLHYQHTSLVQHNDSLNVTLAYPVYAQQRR
# PI3Kalpha, sequence (P42336 whole entry): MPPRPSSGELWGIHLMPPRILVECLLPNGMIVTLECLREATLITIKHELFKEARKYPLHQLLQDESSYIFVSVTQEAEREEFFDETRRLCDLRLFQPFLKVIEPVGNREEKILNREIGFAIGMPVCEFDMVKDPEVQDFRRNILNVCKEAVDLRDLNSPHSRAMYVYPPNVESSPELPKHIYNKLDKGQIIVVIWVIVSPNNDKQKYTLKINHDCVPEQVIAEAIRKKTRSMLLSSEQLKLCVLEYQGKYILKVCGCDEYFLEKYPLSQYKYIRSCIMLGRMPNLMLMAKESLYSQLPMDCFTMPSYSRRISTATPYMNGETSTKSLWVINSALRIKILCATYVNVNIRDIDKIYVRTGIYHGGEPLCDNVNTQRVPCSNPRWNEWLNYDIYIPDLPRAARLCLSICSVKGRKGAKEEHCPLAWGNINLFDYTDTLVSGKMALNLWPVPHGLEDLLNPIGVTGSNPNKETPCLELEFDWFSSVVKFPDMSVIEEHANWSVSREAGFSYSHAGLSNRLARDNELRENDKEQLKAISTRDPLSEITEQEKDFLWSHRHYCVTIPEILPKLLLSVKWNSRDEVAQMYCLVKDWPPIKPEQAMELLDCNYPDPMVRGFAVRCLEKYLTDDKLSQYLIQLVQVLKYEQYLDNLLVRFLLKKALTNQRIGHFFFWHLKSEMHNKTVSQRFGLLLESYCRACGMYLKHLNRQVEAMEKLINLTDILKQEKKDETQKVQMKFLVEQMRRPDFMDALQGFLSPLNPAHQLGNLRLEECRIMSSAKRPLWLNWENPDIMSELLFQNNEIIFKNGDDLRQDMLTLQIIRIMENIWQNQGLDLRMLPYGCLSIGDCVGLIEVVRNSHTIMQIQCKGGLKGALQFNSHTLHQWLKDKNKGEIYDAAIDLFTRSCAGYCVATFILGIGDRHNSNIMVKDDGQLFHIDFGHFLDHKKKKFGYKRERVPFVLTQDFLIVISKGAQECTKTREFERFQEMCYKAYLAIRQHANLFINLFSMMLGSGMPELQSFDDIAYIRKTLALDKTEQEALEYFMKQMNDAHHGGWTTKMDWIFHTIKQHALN
# PI3Kalpha, sequence (P27986 whole entry partner): as the sequence (P27986 whole entry partner) above
# T1 sequence (P42345 1362-2549 limits assumed): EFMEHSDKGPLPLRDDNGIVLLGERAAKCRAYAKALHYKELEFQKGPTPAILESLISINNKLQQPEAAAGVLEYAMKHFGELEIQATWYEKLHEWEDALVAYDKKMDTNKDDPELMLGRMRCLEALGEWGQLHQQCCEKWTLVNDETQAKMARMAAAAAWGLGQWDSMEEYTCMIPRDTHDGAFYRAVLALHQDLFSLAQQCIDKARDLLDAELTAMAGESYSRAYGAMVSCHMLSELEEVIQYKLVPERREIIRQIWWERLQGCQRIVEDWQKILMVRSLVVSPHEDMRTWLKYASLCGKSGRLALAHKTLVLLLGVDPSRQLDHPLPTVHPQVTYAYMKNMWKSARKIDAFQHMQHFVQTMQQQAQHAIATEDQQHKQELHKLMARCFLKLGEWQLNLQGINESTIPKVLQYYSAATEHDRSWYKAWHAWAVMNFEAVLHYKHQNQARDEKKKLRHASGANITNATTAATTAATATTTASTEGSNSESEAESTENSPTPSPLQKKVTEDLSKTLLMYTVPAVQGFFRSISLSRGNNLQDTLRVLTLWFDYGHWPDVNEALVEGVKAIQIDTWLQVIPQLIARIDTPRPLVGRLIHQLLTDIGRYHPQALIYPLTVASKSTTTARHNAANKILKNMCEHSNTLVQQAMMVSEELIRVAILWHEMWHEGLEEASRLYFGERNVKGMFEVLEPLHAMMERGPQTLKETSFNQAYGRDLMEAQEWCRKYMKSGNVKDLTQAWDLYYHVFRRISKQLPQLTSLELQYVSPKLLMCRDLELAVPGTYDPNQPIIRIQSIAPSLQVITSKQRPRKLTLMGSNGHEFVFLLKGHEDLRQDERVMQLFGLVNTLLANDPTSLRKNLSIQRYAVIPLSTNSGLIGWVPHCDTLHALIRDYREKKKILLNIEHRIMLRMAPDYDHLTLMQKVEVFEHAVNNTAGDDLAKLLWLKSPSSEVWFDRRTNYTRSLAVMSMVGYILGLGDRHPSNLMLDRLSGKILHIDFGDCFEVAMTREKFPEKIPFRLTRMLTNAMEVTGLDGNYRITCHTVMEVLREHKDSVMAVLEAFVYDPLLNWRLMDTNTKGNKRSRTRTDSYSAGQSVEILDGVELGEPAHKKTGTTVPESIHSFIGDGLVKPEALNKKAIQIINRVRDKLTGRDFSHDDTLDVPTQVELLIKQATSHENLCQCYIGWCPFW
# recombinant PI3Kalpha (shortened form of the catalytic subunit), sequence (P42336 151-1068 limits assumed): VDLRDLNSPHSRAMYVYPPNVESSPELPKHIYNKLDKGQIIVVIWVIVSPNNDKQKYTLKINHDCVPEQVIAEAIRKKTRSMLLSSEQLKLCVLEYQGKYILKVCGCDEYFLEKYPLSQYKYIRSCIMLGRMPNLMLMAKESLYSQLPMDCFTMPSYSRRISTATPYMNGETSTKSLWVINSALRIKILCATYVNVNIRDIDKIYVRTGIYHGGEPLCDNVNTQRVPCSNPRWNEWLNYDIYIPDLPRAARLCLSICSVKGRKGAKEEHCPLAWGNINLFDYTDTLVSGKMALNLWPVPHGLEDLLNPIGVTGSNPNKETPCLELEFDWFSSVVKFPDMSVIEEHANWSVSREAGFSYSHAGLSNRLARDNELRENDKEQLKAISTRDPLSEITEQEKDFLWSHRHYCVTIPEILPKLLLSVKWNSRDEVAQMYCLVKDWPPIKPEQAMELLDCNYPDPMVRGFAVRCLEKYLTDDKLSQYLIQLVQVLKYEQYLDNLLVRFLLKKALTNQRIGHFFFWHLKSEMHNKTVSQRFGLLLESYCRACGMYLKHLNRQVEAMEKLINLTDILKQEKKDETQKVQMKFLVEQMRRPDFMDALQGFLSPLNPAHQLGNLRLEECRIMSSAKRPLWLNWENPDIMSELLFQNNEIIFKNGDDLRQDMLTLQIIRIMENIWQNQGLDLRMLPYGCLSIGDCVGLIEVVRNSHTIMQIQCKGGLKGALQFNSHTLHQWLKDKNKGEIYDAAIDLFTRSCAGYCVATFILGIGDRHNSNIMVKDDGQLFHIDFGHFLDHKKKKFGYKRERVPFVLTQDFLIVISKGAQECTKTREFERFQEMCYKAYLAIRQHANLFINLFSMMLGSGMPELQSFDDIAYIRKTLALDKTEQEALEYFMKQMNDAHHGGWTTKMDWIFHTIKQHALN
compound,measurement,setting,value
"COc1cccc(-c2ccnc(-c3cn(C)c(=O)n3-c3ccc(C(C)(C)C#N)cc3)c2)c1 [Example A3, 2-(4-{5-[4-(3-Methoxyphenyl)pyridin-2-yl]-3-methyl-2-oxo-2,3-dihydroimidazol-1-yl}phenyl)-2-methylpropionitrile]",pIC50,PI3Kalpha,5.00 to 7.00
same,pIC50,[1],< 5.00
same,pIC50,PI3Kbeta,< 5.00
same,pIC50,mTOR,< 5.00
same,pIC50,DNA-PK protein complex,7.00 to 10.00
same,pKd,[2],5.00 to 7.00
"COc1ccc(-c2ccnc(-c3cn(C)c(=O)n3-c3ccc(N4CCNCC4)c(C(F)(F)F)c3)c2)cn1 [Example A20, 4-(6-Methoxy-[3,4′]bipyridinyl-2′-yl)-1-methyl-3-(4-piperazin-1-yl-3-trifluoro-methylphenyl)-1,3-dihydroimidazol-2-one]",pIC50,PI3Kalpha,5.00 to 7.00
same,pIC50,[1],5.00 to 7.00
same,pIC50,PI3Kbeta,5.00 to 7.00
same,pIC50,mTOR,5.00 to 7.00
same,pIC50,DNA-PK protein complex,7.00 to 10.00
same,pKd,[2],5.00 to 7.00
"Cn1cc(-c2cc(-c3cnc4ccccc4c3)ccn2)n(-c2ccc(C(C)(C)C(=O)O)cc2)c1=O [Example A22, 2-Methyl-2-{4-[3-methyl-2-oxo-5-(4-quinolin-3-ylpyridin-2-yl)-2,3-dihydroimidazol-1-yl]phenyl}propionic acid]",pIC50,PI3Kalpha,5.00 to 7.00
same,pIC50,[1],< 5.00
same,pIC50,PI3Kbeta,< 5.00
same,pIC50,mTOR,5.00 to 7.00
same,pIC50,DNA-PK protein complex,5.00 to 7.00
same,pKd,[2],5.00 to 7.00
"Cn1cc(-c2cc(-c3ccnc4[nH]ccc34)ccn2)n(-c2ccc(C(C)(C)C#N)cc2)c1=O [Example A23, 2-Methyl-2-(4-{3-methyl-2-oxo-5-[4-(1H-pyrrolo[2,3-b]pyridin-4-yl)pyridin-2-yl]-2,3-dihydroimidazol-1-yl}phenyl)propionitrile]",pIC50,PI3Kalpha,5.00 to 7.00
same,pIC50,[1],5.00 to 7.00
same,pIC50,PI3Kbeta,< 5.00
same,pIC50,mTOR,5.00 to 7.00
same,pIC50,DNA-PK protein complex,7.00 to 10.00
same,pKd,[2],5.00 to 7.00
"CCn1cc(-c2cc(-c3cnc4[nH]ccc4c3)ccn2)n(-c2ccc(C(C)(C)C#N)cc2)c1=O [Example A24, 2-(4-{3-Ethyl-2-oxo-5-[4-(1H-pyrrolo[2,3-b]pyridin-5-yl)pyridin-2-yl]-2,3-dihydro-imidazol-1-yl}phenyl)-2-methylpropionitrile]",pIC50,PI3Kalpha,5.00 to 7.00
same,pIC50,[1],5.00 to 7.00
same,pIC50,PI3Kbeta,5.00 to 7.00
same,pIC50,mTOR,7.00 to 10.00
same,pIC50,DNA-PK protein complex,7.00 to 10.00
same,pKd,[2],7.00 to 10.00
"Cn1cc(-c2cc(-c3cnc4[nH]c(C(F)(F)F)cc4c3)ccn2)n(-c2ccc(C(C)(C)C#N)cc2)c1=O [Example A27, 2-Methyl-2-(4-{3-methyl-2-oxo-5-[4-(2-trifluoromethyl-1H-pyrrolo[2,3-b]pyridin-5-yl)pyridin-2-yl]-2,3-dihydroimidazol-1-yl}phenyl)propionitrile]",pIC50,PI3Kalpha,5.00 to 7.00
same,pIC50,[1],5.00 to 7.00
same,pIC50,PI3Kbeta,< 5.00
same,pIC50,mTOR,7.00 to 10.00
same,pIC50,DNA-PK protein complex,7.00 to 10.00
same,pKd,[2],5.00 to 7.00
"Cn1cc(-c2cc(-c3cnc4[nH]ncc4c3)ccn2)n(-c2ccc(N3CCNCC3)c(C(F)(F)F)c2)c1=O [Example A46, 1-Methyl-3-(4-piperazin-1-yl-3-trifluoromethylphenyl)-4-[4-(1H-pyrazolo[3,4-b]-pyridin-5-yl)pyridin-2-yl]-1,3-dihydroimidazol-2-one]",pIC50,PI3Kalpha,7.00 to 10.00
same,pIC50,[1],5.00 to 7.00
same,pIC50,PI3Kbeta,5.00 to 7.00
same,pIC50,mTOR,5.00 to 7.00
same,pIC50,DNA-PK protein complex,7.00 to 10.00
same,pKd,[2],7.00 to 10.00
"CN1CCN(c2ccc(-n3c(-c4cc(-c5cnc6[nH]ccc6c5)ccn4)cn(C)c3=O)cc2)CC1 [Example A50, 1-Methyl-3-[4-(4-methylpiperazin-1-yl)phenyl]-4-[4-(1H-pyrrolo[2,3-b]pyridin-5-yl)pyridin-2-yl]-1,3-dihydroimidazol-2-one]",pIC50,PI3Kalpha,5.00 to 7.00
same,pIC50,[1],5.00 to 7.00
same,pIC50,PI3Kbeta,5.00 to 7.00
same,pIC50,mTOR,5.00 to 7.00
same,pIC50,DNA-PK protein complex,7.00 to 10.00
same,pKd,[2],7.00 to 10.00
"Cn1cc(-c2cc(-c3cnc4[nH]ccc4c3)ccn2)n(-c2ccc(F)c(C(F)(F)F)c2)c1=O [Example A51, 3-(4-Fluoro-3-trifluoromethylphenyl)-1-methyl-4-[4-(1H-pyrrolo[2,3-b]pyridin-5-yl)pyridin-2-yl]-1,3-dihydroimidazol-2-one]",pIC50,PI3Kalpha,5.00 to 7.00
same,pIC50,[1],5.00 to 7.00
same,pIC50,PI3Kbeta,< 5.00
same,pIC50,mTOR,5.00 to 7.00
same,pIC50,DNA-PK protein complex,7.00 to 10.00
"Cn1cc(-c2cc(-c3ccc(N)cc3)ccn2)n(-c2ccc(N3CCNCC3)c(C(F)(F)F)c2)c1=O [Example A60, 4-[4-(4-Aminophenyl)pyridin-2-yl]-1-methyl-3-(4-piperazin-1-yl-3-trifluoromethyl-phenyl)-1,3-dihydroimidazol-2-one]",pIC50,PI3Kalpha,5.00 to 7.00
same,pIC50,[1],5.00 to 7.00
same,pIC50,PI3Kbeta,< 5.00
same,pIC50,mTOR,< 5.00
same,pIC50,DNA-PK protein complex,7.00 to 10.00
same,pKd,[2],5.00 to 7.00
"Cn1cc(-c2cc(-c3ccc(NS(C)(=O)=O)nc3)ccn2)n(-c2ccc(N3CCNCC3)c(C(F)(F)F)c2)c1=O [Example A61, N-{2′-[1-Methyl-2-oxo-3-(4-piperazin-1-yl-3-trifluoromethylphenyl)-2,3-dihydro-1H-imidazol-4-yl]-[3,4′]bipyridinyl-6-yl}methanesulfonamide]",pIC50,PI3Kalpha,5.00 to 7.00
same,pIC50,[1],< 5.00
same,pIC50,PI3Kbeta,< 5.00
same,pIC50,mTOR,5.00 to 7.00
same,pIC50,DNA-PK protein complex,7.00 to 10.00
"Cn1cc(-c2cc(-c3cnc4[nH]ncc4c3)ccn2)n(-c2cccc(C#N)c2)c1=O [Example A63, 3-{3-Methyl-2-oxo-5-[4-(1H-pyrazolo[3,4-b]pyridin-5-yl)pyridin-2-yl]-2,3-dihydro-imidazol-1-yl}benzonitrile]",pIC50,PI3Kalpha,7.00 to 10.00
same,pIC50,[1],5.00 to 7.00
same,pIC50,PI3Kbeta,5.00 to 7.00
same,pIC50,mTOR,7.00 to 10.00
same,pIC50,DNA-PK protein complex,7.00 to 10.00
same,pKd,[2],7.00 to 10.00
"CC(=O)N1CCN(c2ccc(-n3c(-c4cc(-c5cnc6[nH]ccc6c5)ccn4)cn(C)c3=O)cc2C(F)(F)F)CC1 [Example A72, 3-[4-(4-Acetylpiperazin-1-yl)-3-trifluoromethylphenyl]-1-methyl-4-[4-(1H-pyrrolo[2,3-b]pyridin-5-yl)pyridin-2-yl]-1,3-dihydroimidazol-2-one]",pIC50,PI3Kalpha,5.00 to 7.00
same,pIC50,[1],7.00 to 10.00
same,pIC50,PI3Kbeta,5.00 to 7.00
same,pIC50,mTOR,5.00 to 7.00
same,pIC50,DNA-PK protein complex,7.00 to 10.00
same,pKd,[2],7.00 to 10.00
"COc1cccc(-n2c(-c3cc(-c4cnc5[nH]ccc5c4)ccn3)cn(C)c2=O)c1 [Example A73, 3-(3-Methoxyphenyl)-1-methyl-4-[4-(1H-pyrrolo[2,3-b]pyridin-5-yl)pyridin-2-yl]-1,3-dihydroimidazol-2-one]",pIC50,PI3Kalpha,5.00 to 7.00
same,pIC50,[1],5.00 to 7.00
same,pIC50,PI3Kbeta,5.00 to 7.00
same,pIC50,mTOR,7.00 to 10.00
same,pIC50,DNA-PK protein complex,7.00 to 10.00
same,pKd,[2],7.00 to 10.00
"Cn1cc(-c2cc(-c3cnc4[nH]ccc4c3)ccn2)n(-c2ccc(N3CCN(S(C)(=O)=O)CC3)c(C(F)(F)F)c2)c1=O [Example A74, 3-[4-(4-Methanesulfonylpiperazin-1-yl)-3-trifluoromethylphenyl]-1-methyl-4-[4-(1H-pyrrolo[2,3-b]pyridin-5-yl)pyridin-2-yl]-1,3-dihydroimidazol-2-one]",pIC50,PI3Kalpha,5.00 to 7.00
same,pIC50,[1],7.00 to 10.00
same,pIC50,PI3Kbeta,5.00 to 7.00
same,pIC50,mTOR,7.00 to 10.00
same,pIC50,DNA-PK protein complex,7.00 to 10.00
"N#Cc1cccc(-n2c(-c3cc(-c4cnc5[nH]ccc5c4)ccn3)cn(C(F)F)c2=O)c1 [Example A75, 3-{3-Difluoromethyl-2-oxo-5-[4-(1H-pyrrolo[2,3-b]pyridin-5-yl)pyridin-2-yl]-2,3-dihydroimidazol-1-yl}benzonitrile]",pIC50,PI3Kalpha,5.00 to 7.00
same,pIC50,[1],5.00 to 7.00
same,pIC50,PI3Kbeta,< 5.00
same,pIC50,mTOR,5.00 to 7.00
same,pIC50,DNA-PK protein complex,7.00 to 10.00
"Cn1cc(-c2cc(-c3cnc4[nH]ccc4c3)ccn2)n(-c2ccccc2OC(F)(F)F)c1=O [Example A76, 1-Methyl-4-[4-(1H-pyrrolo[2,3-b]pyridin-5-yl)pyridin-2-yl]-3-(2-trifluoromethoxy-phenyl)-1,3-dihydroimidazol-2-one]",pIC50,PI3Kalpha,< 5.00
same,pIC50,[1],< 5.00
same,pIC50,PI3Kbeta,< 5.00
same,pIC50,mTOR,7.00 to 10.00
same,pIC50,DNA-PK protein complex,7.00 to 10.00
"CCN1CCN(c2ccc(-n3c(-c4cc(-c5cnc6[nH]ccc6c5)ccn4)cn(C)c3=O)cc2C(F)(F)F)CC1 [Example A77, 3-[4-(4-Ethylpiperazin-1-yl)-3-trifluoromethylphenyl]-1-methyl-4-[4-(1H-pyrrolo[2,3-b]pyridin-5-yl)pyridin-2-yl]-1,3-dihydroimidazol-2-one]",pIC50,PI3Kalpha,5.00 to 7.00
same,pIC50,[1],7.00 to 10.00
same,pIC50,PI3Kbeta,5.00 to 7.00
same,pIC50,mTOR,< 5.00
same,pIC50,DNA-PK protein complex,7.00 to 10.00
"Cc1cccc(-n2c(-c3cc(-c4cnc5[nH]ccc5c4)ccn3)cn(C)c2=O)c1 [Example A79, 1-Methyl-4-[4-(1H-pyrrolo[2,3-b]pyridin-5-yl)pyridin-2-yl]-3-m-tolyl-1,3-dihydro-imidazol-2-one]",pIC50,PI3Kalpha,5.00 to 7.00
same,pIC50,[1],5.00 to 7.00
same,pIC50,PI3Kbeta,5.00 to 7.00
same,pIC50,mTOR,5.00 to 7.00
same,pIC50,DNA-PK protein complex,7.00 to 10.00
"CC(C)c1cccc(-n2c(-c3cc(-c4cnc5[nH]ccc5c4)ccn3)cn(C)c2=O)c1 [Example A80, 3-(3-Isopropylphenyl)-1-methyl-4-[4-(1H-pyrrolo[2,3-b]pyridin-5-yl)pyridin-2-yl]-1,3-dihydroimidazol-2-one]",pIC50,PI3Kalpha,5.00 to 7.00
same,pIC50,[1],5.00 to 7.00
same,pIC50,PI3Kbeta,5.00 to 7.00
same,pIC50,mTOR,< 5.00
same,pIC50,DNA-PK protein complex,7.00 to 10.00
